Measured values reported in PMC7643960 (PLoS ONE, 2020).
“And” between values parts separate entries of the source, which are not always exact repeats. Equal entries are not always repeated.

What was measured:
Type in all cases: cell-based, horse
[1] = tested on: primary equine dermal fibroblasts PriFi2; test: MTS cytotoxicity assay; details: for IC50: mean (95% CI)
Procedure: (§1) All cells used for the experiments originate from different horses. Primary EMM cells (MelDuWi) and primary equine dermal fibroblasts (PriFi1, PriFi2) belong to the cell culture stock of the Clinic for Horses, University of Veterinary Medicine Hannover, Foundation, Hannover, Germany.
(§2) The cytotoxicity of the compounds was assessed by the CellTiter 96® AQueous One Solution Cell Proliferation Assay (MTS) (Promega GmbH, Mannheim, Germany) as reported. In brief, in order to reach cell confluence within 48 h, cells were seeded into 96-well plates in adequate densities (MelDuWi 30,000 cells/well; PriFi1, PriFi2, eRGO1 20,000 cells/well; sRGO1and sRGO2 15,000 cells/well). […] The formazan dye generated by the metabolic active cells was quantified photometrically. Cytotoxicity assays were performed in six to nine biological replicates with two technical replicates for each combination of cell type, incubation time and compound concentration.
(§3) Technical duplicates with a coefficient of variation of more than 20% were excluded from the cell assay analysis. […] Additional statistical data analysis was conducted with R 3.5.1.. A generalized additive model was fitted for each test (MTS and CVS) and cell type comparison (primary EMM cells and fibroblasts, and primary ES cells and fibroblasts) using the ‘mgcv’ package. Compound concentrations and the duration of incubation were modeled as tensor product smooth interacting with compound and cell line. Cell passage was added as a random effect. An appropriate distribution was selected by the visual inspection of residuals. The p-values were obtained by performing a Wald test for each parameter. Statistical significance was set at 0.05.

primary EMM cells eRGO1 [2] = test: MTS cytotoxicity assay; details: for IC50: mean (95% CI)
Procedure: as §1, §2, §3

[3] = tested on: primary equine dermal fibroblasts PriFi1; test: MTS cytotoxicity assay; details: for IC50: mean (95% CI)
Procedure: as §1, §2, §3

primary ES cells sRGO2 [4] = test: MTS cytotoxicity assay; details: for IC50: mean (95% CI)
Procedure: as §1, §2, §3

[5] = tested on: primary EMM cells MelDuWi; test: MTS cytotoxicity assay; details: for IC50: mean (95% CI)
Procedure: as §1, §2, §3

primary ES cells sRGO1 [6] = test: MTS cytotoxicity assay; details: for IC50: mean (95% CI)
Procedure: as §1, §2, §3

EMM cells MelDuWi = test: AnnexinV-FITC/propidium iodide staining, flow cytometry; details: double IC50 concentration
Procedure: (§4) Approximately 7.5 × 10^5 cells (MelDuWi) and 1.0 × 10^6 cells (PriFri2 and sRGO2) were seeded in 25 cm^2 cell culture flasks. […] Following 24 and 48 h of incubation, cells were harvested by mild trypsinization and washed twice with PBS buffer (containing Mg^2+ and Ca^2+). Cells (1.0 × 10^6) were resuspended in AnnexinV binding buffer (BioLegend®, San Diego, US) to a concentration of 1.0 ‧ 10^6 cells/mL. Approximately 100,000 cells were stained with propidium iodide solution ([…], 1 mg/mL) and FITC AnnexinV solution ([…], BioLegend®) for 15 min in the dark at room temperature. After the addition of Annexin V binding buffer ([…]), the suspension was analyzed using the Attune® FACS machine (Life Technologies). After gating for living cells, the data from detectors BL-1A and BL-3A were collected. A total of 20,000 events were collected from each sample and technical duplicates were measured.

[7] = tested on: equine dermal fibroblasts PriFri2; test: as above; details: double IC50 concentration
Procedure: as §4

[8] = tested on: primary equine dermal fibroblasts PriFi2; test: crystal violet staining assay (CVS), proliferation; details: for IC50: mean (95% CI)
Procedure: as §1
(§5) The proliferation assay was performed as published. […] Control cells were treated with medium only. The proportion of cells treated relative to untreated controls was determined by crystal violet staining and photometric absorbance measurement at the incubation time points mentioned above. Proliferation assays were performed in six to eight biological replicates with two technical replicates for each combination of cell type, incubation time and compound concentration.
as §3

primary EMM cells eRGO1 [9] = test: crystal violet staining assay (CVS), proliferation; details: for IC50: mean (95% CI)
Procedure: as §1, §5, §3

[10] = tested on: primary equine dermal fibroblasts PriFi1; test: crystal violet staining assay (CVS), proliferation; details: for IC50: mean (95% CI)
Procedure: as §1, §5, §3

primary ES cells sRGO2 [11] = test: crystal violet staining assay (CVS), proliferation; details: for IC50: mean (95% CI)
Procedure: as §1, §5, §3

[12] = tested on: primary EMM cells MelDuWi; test: crystal violet staining assay (CVS), proliferation; details: for IC50: mean (95% CI)
Procedure: as §1, §5, §3

primary ES cells sRGO1 [13] = test: crystal violet staining assay (CVS), proliferation; details: for IC50: mean (95% CI)
Procedure: as §1, §5, §3

SMILES: C=C(C)[C@@H]1CC[C@]2(C(=O)OCC(N)(CO)CO)CC[C@]3(C)[C@H](CC[C@@H]4[C@@]5(C)CC[C@H](OC(C)=O)C(C)(C)[C@@H]5CC[C@]43C)[C@@H]12 [NVX-207, 3-acetyl-betulinic acid-2-amino-3-hydroxy-2-hydroxymethyl-propanoate]
- IC50 ([1]; PriFi2, 5 h): 20 µM
- IC50 ([1]; PriFi2, 24 h): 7 µM
- IC50 ([1]; PriFi2, 96 h): 4 µM
- times more cytotoxic than BBS ([1]; PriFi2, after 48 h, MTS): ~9 times
- IC50 (primary EMM cells eRGO1 [2]; eRGO1, 5 h): 9 µM
- IC50 (primary EMM cells eRGO1 [2]; eRGO1, 24 h): 7 µM
- IC50 (primary EMM cells eRGO1 [2]; eRGO1, 48 h): 4 µM
- IC50 (primary EMM cells eRGO1 [2]; eRGO1, 96 h): < 1 µM
- times more cytotoxic than BBS (primary EMM cells eRGO1 [2]; eRGO1, after 48 h, MTS): ~8 times
- IC50 ([3]; PriFi1, 5 h): 11 µM
- IC50 ([3]; PriFi1, 24 h): 4 µM
- IC50 ([3]; PriFi1, 48 h): 1 µM
- IC50 ([3]; PriFi1, 96 h): < 1 µM
- times more cytotoxic than BBS ([3]; PriFi1, after 48 h, MTS): ~34 times
- IC50 (primary ES cells sRGO2 [4]; sRGO2, 5 h): 8 µM
- IC50 (primary ES cells sRGO2 [4]; sRGO2, 24 h): 3 µM
- IC50 (primary ES cells sRGO2 [4]; sRGO2, 48 h): 1 µM
- times more cytotoxic than BBS (primary ES cells sRGO2 [4]; sRGO2, after 48 h, MTS): about 25 times
- IC50 ([5]; 24 h): 18 µM
- IC50 ([5]; 48 h): 15 µM
- IC50 ([5]; 96 h): 8 µM
- times more cytotoxic than BBS ([5]; after 48 h, MTS): ~3 times
- IC50 (primary ES cells sRGO1 [6]; sRGO1, 5 h): 9 µM
- IC50 (primary ES cells sRGO1 [6]; sRGO1, 24 h): 4 µM
- IC50 (primary ES cells sRGO1 [6]; sRGO1, 48 h): 2 µM
- times more cytotoxic than BBS (primary ES cells sRGO1 [6]; sRGO1, after 48 h, MTS): about 11 times
- AnnexinV staining: Living cells (EMM cells MelDuWi; 24 h): 48,9%
- AnnexinV staining: early apop (EMM cells MelDuWi; 24 h): 20,0%
- AnnexinV staining: late apop (EMM cells MelDuWi; 24 h): 30,8%
- AnnexinV staining: necrotic (EMM cells MelDuWi; 24 h): 0,3%
- AnnexinV staining: Living cells (EMM cells MelDuWi; 48 h): 29,8%
- AnnexinV staining: early apop (EMM cells MelDuWi; 48 h): 24,3%
- AnnexinV staining: late apop (EMM cells MelDuWi; 48 h): 45% and 44.8%
- AnnexinV staining: apoptotic cells ([7]; PriFi2, 48 h): about 85%
- AnnexinV staining: Living cells ([7]; PriFri2, 24 h): 50,0%
- AnnexinV staining: early apop ([7]; PriFri2, 24 h): 10,2%
- AnnexinV staining: late apop ([7]; PriFri2, 24 h): 37,6%
- AnnexinV staining: necrotic ([7]; PriFri2, 24 h): 2,2%
- AnnexinV staining: Living cells ([7]; PriFri2, 48 h): 12,3%
- AnnexinV staining: early apop ([7]; PriFri2, 48 h): 17,9%
- AnnexinV staining: late apop ([7]; PriFri2, 48 h): 67,1%
- IC50 ([8]; PriFi2, 5 h): 14 µM
- IC50 ([8]; PriFi2, 24 h): 8 µM
- IC50 ([8]; PriFi2, 48 h): 7 µM
- IC50 ([8]; PriFi2, 96 h): < 1 µM
- NVX-207 exceeded BBSs' antiproliferative effects ([8]; PriFi2, after 48 h, CVS): ~6 times
- IC50 (primary EMM cells eRGO1 [9]; eRGO1, 5 h): 10 µM
- IC50 (primary EMM cells eRGO1 [9]; eRGO1, 24 h): 5 µM
- IC50 (primary EMM cells eRGO1 [9]; eRGO1, 48 h): < 1 µM
- IC50 (primary EMM cells eRGO1 [9]; eRGO1, 96 h): < 1 µM
- NVX-207 exceeded BBSs' antiproliferative effects (primary EMM cells eRGO1 [9]; eRGO1, after 48 h, CVS): about 25 times
- IC50 ([10]; PriFi1, 5 h): 11 µM
- IC50 ([10]; PriFi1, 24 h): 4 µM
- IC50 ([10]; PriFi1, 48 h): 2 µM
- IC50 ([10]; PriFi1, 96 h): < 1 µM
- NVX-207 exceeded BBSs' antiproliferative effects ([10]; PriFi1, after 48 h, CVS): about 23 times
- IC50 (primary ES cells sRGO2 [11]; sRGO2, 5 h): 6 µM
- IC50 (primary ES cells sRGO2 [11]; sRGO2, 24 h): < 1 µM
- IC50 (primary ES cells sRGO2 [11]; sRGO2, 48 h): < 1 µM
- NVX-207 exceeded BBSs' antiproliferative effects (primary ES cells sRGO2 [11]; sRGO2, after 48 h, CVS): ~29 times
- IC50 ([12]; 5 h): 20 µM
- IC50 ([12]; 24 h): 16 µM
- IC50 ([12]; 48 h): 12 µM
- IC50 ([12]; 96 h): 4 µM
- NVX-207 exceeded BBSs' antiproliferative effects ([12]; after 48 h, CVS): ~3 times
- IC50 (primary ES cells sRGO1 [13]; sRGO1, 5 h): 7 µM
- IC50 (primary ES cells sRGO1 [13]; sRGO1, 24 h): 7 µM
- IC50 (primary ES cells sRGO1 [13]; sRGO1, 48 h): < 1 µM
- NVX-207 exceeded BBSs' antiproliferative effects (primary ES cells sRGO1 [13]; sRGO1, after 48 h, CVS): about 23 times
